Laboratory results taken from patent US20260209777A1, “TARGETING GLYCOSYLPHOSPHATIDYLINOSITOL (GPI) PATHWAY PROTEINS TO TREAT OVARIAN CANCER” (UNIVERSITY OF MASSACHUSETTS, priority 2023, published 2026).

Assays:
Assay type in all cases: cell-based, human
[1] = test system: OVCAR8 cells; experiment: Cell viability assay (PrestoBlue) in OVCAR8 cells; details: OVCAR8, 5, 10 or 20 μM bestatin vs DMSO (FIG. 6F)
Method: Cell Viability Assay: OVCAR8 cells were transduced with a lentivirus expressing non-silencing (NS) or CD24 shRNA (Table 1) and analyzed for cell viability using PrestoBlue Cell Viability Reagent (Invitrogen™, Cat #A13261) as per the manufacturer's instructions, and relative cell growth was determined. […]

[2] = test system: CD24 cell surface expression in MCF7 breast cancer cells; experiment: CD24 flow cytometry analysis in MCF7 cells; details: MCF7, 10 or 20 μM bestatin vs DMSO (FIG. 7D)
Method: (§1) Flow Cytometry Analysis: For cell surface protein staining, 1×10^5-1×10^6 cells were first incubated with Fc receptor blocking solution, Human TruStain FcX™ (BioLegend, Cat #422301) for 10 minutes at room temperature. Cells were washed once in FACS buffer (1×PBS, 1.0% bovine serum albumin (BSA) (Sigma) and 0.2% sodium azide (Sigma), and then incubated with antibodies (given below) for 30 minutes at 4° C. in the dark. Cells were also stained with 7-AAD (Biolegend, Cat #420404) for dead cell exclusion, and flow cytometry analysis was performed using a Bio-Rad ZE5 Cell Analyzer. Following antibodies used in this study (all antibodies were used at 1:50 dilution unless otherwise noted): APC anti-human CD24 (BioLegend, Cat #311118, clone ML5), PE anti-human CD24 (eBioscience, Cat #12-0247-42, clone SN3), APC anti-human CD47 (BioLegend, Cat #323124, clone CC2C6), APC anti-human § 2-microglobulin (BioLegend, Cat #395711, clone A17082A), PE anti-human HLA-A2 (MHC-class I) (BioLegend, Cat #343305, clone BB7.2), APC anti-human CD11b (BioLegend, Cat #982604, clone ICRF44), APC anti-mouse F4/80 antibody (BioLegend, Cat #123116, clone BM8), APC-streptavidin (Thermo Fisher Scientific, Cat #SA1005, 1:100 dilution), PE anti-Calreticulin (Invitrogen, Catalog #MA5-15382, 1:200 dilution). […]

[3] = test system: SKOV3 cells; experiment: Cell viability assay (PrestoBlue) in SKOV3 cells; details: SKOV3, 5, 10 or 20 μM bestatin vs DMSO (FIG. 6F)
[4] = test system: CD24 cell surface expression in SKOV3 cells; experiment: CD24 flow cytometry analysis in SKOV3 cells; details: 3 days, bestatin 10 or 20 μM, tosedostat 5 or 10 μM, vs DMSO
Method: as §1, with “FcXTM” for “FcX™”, “[…]),” for “A17082A),”

SMILES | cell viability [1] | CD24 cell surface expression (MFI) [2] | cell viability [3] | CD24 cell surface expression (MFI) [4]
CC(C)C[C@H](NC(=O)[C@@H](O)[C@H](N)Cc1ccccc1)C(=O)O [bestatin] | no effect | did not decrease | no effect | –
CC(C)C[C@@H](C(=O)N[C@H](C(=O)OC1CCCC1)c1ccccc1)[C@H](O)C(=O)NO [tosedostat] | – | – | – | reduced
